Data published in publication PMC4309848, “The role of the catecholic and the electrophilic moieties of caffeic acid in Nrf2/Keap1 pathway activation in ovarian carcinoma cell lines” (Redox Biology, 2014).

Experiments:
[1] = target: glutathione reductase-1 (GSR, GSR1); assay: in vitro enzyme activity assay (GSSG/NADPH, absorbance at […] nm); assay type: biochemical
[2] = target: glutathione-S-transferase (GST, GSTP1); assay: in vitro enzyme activity assay (GSH/CDNB conjugation, absorbance at […] nm); assay type: biochemical

`O=C(O)/C=C/c1ccc(O)c(O)c1` [CA, caffeic acid] showed an IC50 [1] of 70 µM and an IC50 [2] of 95 µM.
